Structures are written as SMILES. Values joined by “and” are separate entries in the source; they are usually repeats but may differ in a detail not shown here. Equal entries are not always repeated. Inconclusive results and toxic doses are left out. Peptide text beside a SMILES is read from it.

Results on 20 compounds are retold here after PubChem BioAssay AID192 (DTP/NCI, 2004).

The test has as its system BDF1 mice, B16 melanoma ip, median survival T/C. Kind of test: NCI In Vivo Anticancer Drug Screen. Data for tumor model B16 Melanoma (intraperitoneal) in B6D2F1 (BDF1) mice. The note with it: endpoint: median survival time, higher = longer survival. The method, boiled down:
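Values are ratios of treated (T) to vehicle-control (C) measurements of survival or tumor size in tumor-bearing mice.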

Setting [1] is: dose: 50.0 mg/kg/injection, schedule: Q01DX009 (ip), vehicle: saline with Tween-80.
Setting [2] is: dose: 100.0 mg/kg/injection, schedule: Q01DX009 (ip), vehicle: saline with Tween-80.
Setting [3] is: dose: 25.0 mg/kg/injection, schedule: Q01DX009 (ip), vehicle: saline.
The mark [4] stands for this setting: dose: 50.0 mg/kg/injection, schedule: Q01DX009 (ip), vehicle: saline.
Where [5] appears, read: dose: 100.0 mg/kg/injection, schedule: Q04DX003 (ip), vehicle: Klucel (hydroxypropylcellulose) (HPC).
Setting [6] is: dose: 200.0 mg/kg/injection, schedule: Q04DX003 (ip), vehicle: Klucel (hydroxypropylcellulose) (HPC).
[7] abbreviates: dose: 400.0 mg/kg/injection, schedule: Q04DX003 (ip), vehicle: Klucel (hydroxypropylcellulose) (HPC).
Where [8] appears, read: dose: 3.12 mg/kg/injection, schedule: Q01DX009 (ip), vehicle: saline.
Where [9] appears, read: dose: 6.25 mg/kg/injection, schedule: Q01DX009 (ip), vehicle: saline.
[10] abbreviates: dose: 12.5 mg/kg/injection, schedule: Q01DX009 (ip), vehicle: saline.
[11] abbreviates: dose: 200.0 mg/kg/injection, schedule: Q01DX009 (ip), vehicle: saline with Tween-80.
Where [12] appears, read: dose: 100.0 mg/kg/injection, schedule: Q01DX009 (ip), vehicle: Klucel (hydroxypropylcellulose) (HPC).

For `CCOC(=O)C(CC)(CCC(C)C)C(=O)OCC`, the T/C (dose: 25.0 mg/kg/injection, schedule: Q01DX009 (ip), vehicle: saline with Tween-80) is 102 % of control; the T/C under setting [1] was 99 % of control; the T/C under setting [2] was 97 % of control.
As to `CCC(N)CC`, the T/C under setting [3] is 102 % of control and the T/C under setting [4] is 117 % of control.
For `COc1ccc2c(c1)C(=O)CCN2`, the T/C was 114 % of control under setting [5], 107 % of control under setting [6] and 99 % of control under setting [7].
With `O=[N+]([O-])c1ccc2c(N=Nc3ccc4ccccc4c3O)c(O)cc(S(=O)(=O)O)c2c1`, the T/C is 94 % of control (dose: 37.5 mg/kg/injection, schedule: Q01DX009 (ip), vehicle: Klucel (hydroxypropylcellulose) (HPC)) and 98 % of control (dose: 75.0 mg/kg/injection, schedule: Q01DX009 (ip), vehicle: Klucel (hydroxypropylcellulose) (HPC)).
Take `CCCCCCCCCCCCCCCCP(=O)(OCCOCCCCCC)OCCOCCCCCC`: the T/C reads like this: under setting [8], 103 % of control; under setting [9], 116 % of control; under setting [10], 109 % of control; under setting [3], 102 % of control; under setting [4], 94 % of control.
As for `Cc1cnc([Se])[nH]c1=O`, the T/C was 100 % of control (dose: 6.25 mg/kg/injection, schedule: Q01DX009 (ip), vehicle: water); 96 % of control (dose: 12.5 mg/kg/injection, schedule: Q01DX009 (ip), vehicle: water); 96 % of control (dose: 25.0 mg/kg/injection, schedule: Q01DX009 (ip), vehicle: water); 101 % of control (dose: 50.0 mg/kg/injection, schedule: Q01DX009 (ip), vehicle: water).
For `O=C1CSC2=NCCN12`, the T/C (dose: 50.0 mg/kg/injection, schedule: Q01DX009 (ip), vehicle: suspension in saline) is 99 % of control; the T/C (dose: 100.0 mg/kg/injection, schedule: Q01DX009 (ip), vehicle: suspension in saline) was 113 % of control; the T/C (dose: 200.0 mg/kg/injection, schedule: Q01DX009 (ip), vehicle: suspension in saline) is 111 % of control.
Consider `c1ccc(OP(Oc2ccccc2)c2ccccc2)cc1`, for which the T/C (dose: 50.0 mg/kg/injection, schedule: Q01DX009 (ip), vehicle: acetone) is 113 % of control; the T/C (dose: 100.0 mg/kg/injection, schedule: Q01DX009 (ip), vehicle: acetone) was 100 % of control; the T/C (dose: 200.0 mg/kg/injection, schedule: Q01DX009 (ip), vehicle: acetone) is 100 % of control.
Turning to `CCCC(C(=O)O)c1ccccc1C` (centres undefined), the T/C by setting is: under setting [2], 102 % of control; under setting [11], 99 % of control; (dose: 300.0 mg/kg/injection, schedule: Q01DX009 (ip), vehicle: saline with Tween-80) 106 % of control.
In the case of `COc1cc2c(c(OC)c1OC)-c1cc3c(cc1[C@@H](OC(C)=O)[C@@H]1COC(=O)[C@H]1C2)OCO3`, the T/C by setting is: (dose: 1.25 mg/kg/injection, schedule: Q01DX009 (ip), vehicle: Klucel (hydroxypropylcellulose) (HPC)) 104 % of control; (dose: 2.5 mg/kg/injection, schedule: Q01DX009 (ip), vehicle: Klucel (hydroxypropylcellulose) (HPC)) 94 % of control; (dose: 5.0 mg/kg/injection, schedule: Q01DX009 (ip), vehicle: Klucel (hydroxypropylcellulose) (HPC)) 104 % of control; (dose: 10.0 mg/kg/injection, schedule: Q01DX009 (ip), vehicle: Klucel (hydroxypropylcellulose) (HPC)) 102 % of control.
Consider `CC(C)CC(N)C(=O)NCC(=O)NC(Cc1ccccc1)C(=O)O` (stereo not drawn) (H-Leu-Gly-Phe-OH; configuration not given here), for which the T/C is, setting by setting: under setting [12], 93 % of control; under setting [5], 95 % of control; (dose: 200.0 mg/kg/injection, schedule: Q01DX009 (ip), vehicle: Klucel (hydroxypropylcellulose) (HPC)) 91 % of control; under setting [6], 97 % of control; (dose: 400.0 mg/kg/injection, schedule: Q01DX009 (ip), vehicle: Klucel (hydroxypropylcellulose) (HPC)) 89 % of control; under setting [7], 102 % of control.
`O=C(Nc1ccc(F)cc1)Nc1ccc(Cl)cc1`: the T/C was 89 % of control under setting [2] and 89 % of control under setting [11].
As to `OCCOCCN1CCN(C(c2ccccc2)c2ccc(Cl)cc2)CC1` (centres undefined), the T/C is 97 % of control under setting [8]; 102 % of control under setting [9]; 105 % of control under setting [10]; 97 % of control under setting [3]; 100 % of control under setting [4]; 102 % of control (dose: 100.0 mg/kg/injection, schedule: Q01DX009 (ip), vehicle: saline).
As for `Cc1cc(C(=O)NNC(C)Cc2ccccc2)no1` (centres undefined), the T/C is 95 % of control (dose: 4.6 mg/kg/injection, schedule: Q01DX009 (ip), vehicle: saline); 100 % of control (dose: 9.3 mg/kg/injection, schedule: Q01DX009 (ip), vehicle: saline); 102 % of control (dose: 18.75 mg/kg/injection, schedule: Q01DX009 (ip), vehicle: saline); 120 % of control (dose: 37.5 mg/kg/injection, schedule: Q01DX009 (ip), vehicle: saline).
With `OC(COc1ccccc1)CN1CCCCC1` (centres undefined), the T/C by setting is: under setting [2], 112 % of control; under setting [11], 102 % of control; (dose: 400.0 mg/kg/injection, schedule: Q01DX009 (ip), vehicle: saline with Tween-80) 114 % of control.
Regarding `CNCCOC(c1ccccc1)c1ccccc1C` (centres undefined), the T/C runs as follows: under setting [8], 97 % of control; under setting [9], 97 % of control; under setting [10], 102 % of control; under setting [3], 100 % of control; under setting [4], 104 % of control.
As to `NC(=O)c1ccc[n+](Cc2c(Cl)cccc2Cl)c1`, the T/C reads like this: (dose: 0.75 mg/kg/injection, schedule: Q01DX009 (ip), vehicle: saline) 99 % of control; (dose: 1.5 mg/kg/injection, schedule: Q01DX009 (ip), vehicle: saline) 96 % of control and 102 % of control; (dose: 3.0 mg/kg/injection, schedule: Q01DX009 (ip), vehicle: saline) 102 % of control and 111 % of control; (dose: 6.0 mg/kg/injection, schedule: Q01DX009 (ip), vehicle: saline) 98 % of control; (dose: 12.0 mg/kg/injection, schedule: Q01DX009 (ip), vehicle: saline) 98 % of control and 99 % of control; (dose: 24.0 mg/kg/injection, schedule: Q01DX009 (ip), vehicle: saline) 105 % of control.
`NNC(=O)c1ccc(N)cc1`: the T/C was 112 % of control under setting [1], 102 % of control under setting [2] and 97 % of control under setting [11].
Take `COC(=O)[C@@H]1c2cc3c(c(O)c2[C@@H](OC)C[C@@]1(C)O)C(=O)c1c(O)cc2c(c1C3=O)OC1O[C@@]2(C)[C@H](O)[C@@H](N(C)C)[C@@H]1O`: the T/C is, setting by setting: under setting [10], 155 % of control and 158 % of control; under setting [3], 165 % of control and 178 % of control; under setting [4], 184 % of control and 186 % of control; (dose: 200.0 mg/kg/injection, schedule: Q01DX009 (ip), vehicle: saline) 153 % of control.
`O=c1cc(-c2ccccc2)nc(Nc2nc3ccc([N+](=O)[O-])cc3[nH]2)[nH]1`: the T/C is, setting by setting: (dose: 25.0 mg/kg/injection, schedule: Q01DX009 (ip), vehicle: Klucel (hydroxypropylcellulose) (HPC)) 102 % of control; (dose: 50.0 mg/kg/injection, schedule: Q01DX009 (ip), vehicle: Klucel (hydroxypropylcellulose) (HPC)) 90 % of control; under setting [12], 98 % of control and 103 % of control.
